Reference: ChEMBL document CHEMBL3046757, “Design, synthesis, and biological evaluation of novel pyridine acid esters of podophyllotoxin and esters of 4-demethylepipodophyllotoxin” (2007)

What was measured:
Assay type in all cases: functional
A549 [1] = experiment: Growth inhibition of Homo sapiens (human) A549 cells at 10^-8 mol/l after 72 hr by MTT assay; conditions: A549, 72 h, read-out: GI
A549 [2] = experiment: Growth inhibition of Homo sapiens (human) A549 cells at 10^-6 mol/l after 72 hr by MTT assay; conditions: A549, 72 h, read-out: GI
P388 [3] = experiment: Growth inhibition of Mus musculus (mouse) P388 cells at 10^-4 mol/l after 72 hr by MTT assay; conditions: P388, 72 h, read-out: GI
A549 [4] = experiment: Growth inhibition of Homo sapiens (human) A549 cells at 10^-7 mol/l after 72 hr by MTT assay; conditions: A549, 72 h, read-out: GI
P388 [5] = experiment: Growth inhibition of Mus musculus (mouse) P388 cells at 10^-8 mol/l after 72 hr by MTT assay; conditions: P388, 72 h, read-out: GI
A549 [6] = experiment: Growth inhibition of Homo sapiens (human) A549 cells at 10^-4 mol/l after 72 hr by MTT assay; conditions: A549, 72 h, read-out: GI
A549 [7] = experiment: Growth inhibition of Homo sapiens (human) A549 cells at 10^-5 mol/l after 72 hr by MTT assay; conditions: A549, 72 h, read-out: GI
P388 [8] = experiment: Growth inhibition of Mus musculus (mouse) P388 cells at 10^-5 mol/l after 72 hr by MTT assay; conditions: P388, 72 h, read-out: GI
P388 [9] = experiment: Growth inhibition of Mus musculus (mouse) P388 cells at 10^-6 mol/l after 72 hr by MTT assay; conditions: P388, 72 h, read-out: GI
P388 [10] = experiment: Growth inhibition of Mus musculus (mouse) P388 cells at 10^-7 mol/l after 72 hr by MTT assay; conditions: P388, 72 h, read-out: GI

Row | Compound | inhibition of growth at 0.01 µM (A549 [1]) [%] | inhibition of growth at 1 µM (A549 [2]) [%] | inhibition of growth at 100 µM (P388 [3]) [%] | inhibition of growth at 0.1 µM (A549 [4]) [%] | inhibition of growth at 0.01 µM (P388 [5]) [%] | inhibition of growth at 100 µM (A549 [6]) [%] | inhibition of growth at 10 µM (A549 [7]) [%] | inhibition of growth at 10 µM (P388 [8]) [%] | inhibition of growth at 1 µM (P388 [9]) [%] | inhibition of growth at 0.1 µM (P388 [10]) [%]
1 | COc1cc([C@@H]2c3cc4c(cc3[C@@H](OC(=O)c3ccncc3)[C@H]3COC(=O)[C@H]23)OCO4)cc(OC)c1O [4-O-DEMETHYLEPIPODOPHYLLOTOXINYL-ISONICOTINATE] | 54 | 66.4 | 100 | 66.1 | 19.8 | 95.1 | 67.8 | 86.9 | 76.5 | 53.5
2 | COc1cc([C@@H]2c3cc4c(cc3[C@@H](OC(=O)c3cccnc3Cl)[C@H]3COC(=O)[C@H]23)OCO4)cc(OC)c1O [4-O-DEMETHYLEPIPODOPHYLLOTOXINYL-2'-CHLORONICOTINATE] | 56.6 | 69.8 | 100 | 62.5 | 9.1 | 92.5 | 78.1 | 84.7 | 72.3 | 12.8
3 | COc1cc([C@@H]2c3cc4c(cc3[C@@H](OC(=O)c3ccccn3)[C@H]3COC(=O)[C@H]23)OCO4)cc(OC)c1O [4-O-DEMETHYLEPIPODOPHYLLOTOXINYL-PICOLINATE] | 53.7 | 73.7 | 100 | 56 | 39.7 | 91.6 | 78.8 | 88.6 | 73.5 | 68
4 | COc1cc([C@@H]2c3cc4c(cc3[C@@H](OC(=O)c3ccc(Cl)nc3)[C@H]3COC(=O)[C@H]23)OCO4)cc(OC)c1O [4-O-DEMETHYLEPIPODOPHYLLOTOXINYL-6'-CHLORONICOTINATE] | 59.3 | 72.5 | 100 | 70.7 | 20.2 | 85.4 | 93.9 | 81.1 | 73.4 | 28.4
5 | COc1cc([C@@H]2c3cc4c(cc3[C@@H](O[C@@H]3O[C@@H]5CO[C@@H](C)O[C@H]5[C@H](O)[C@H]3O)[C@H]3COC(=O)[C@H]23)OCO4)cc(OC)c1O [ETOPOSIDE] | 0 | 45 | 99.2 | 0 | 1.8 | 97.5 | 50.7 | 70.6 | 25.5 | 6
6 | COc1cc([C@@H]2c3cc4c(cc3[C@H](OC(=O)c3ccccn3)[C@H]3COC(=O)[C@H]23)OCO4)cc(OC)c1OC [4-O-PODOPHYLLOTOXINYL-PICOLINATE] | 81.4 | 82.3 | 87.7 | 81.8 | 85.4 | 89.2 | 84 | 87 | 86 | 85.5
